Experimental data published in patent US7871628B2, “Peptide mimics of conserved gonococcal epitopes and methods and compositions using them” (University of Massachusetts, priority 1999, dated 2011).
pIC50: −log10 of the molar value. “And” between values parts separate entries of the source, which are not always exact repeats. Equal entries are not always repeated. Positions of bridges follow the written chain, without caps; N, C: chain ends. No end group written: not given here.

Assays:
[1] = test system: N. gonorrhoeae strain 15253 lgtG; assay: Complement-mediated bactericidal assay, strain 15253 lgtG mutant (2C7 epitope negative); format: cell-based, Neisseria gonorrhoeae; conditions: serum of single immunized mouse, 67% serum, 17% human complement
Description: (§1) A bactericidal assay was performed using (A) mAb 2C7 mice against strain 15253 (positive control) and strain 15253 lgtG (negative control) (4). 25 μg/ml of mAb 2C7 (100 μl in 150 μl of total volume of reaction mixture) mediated 100% killing of strain 15253, and no killing of strain 15253 lgtG. […] FIG. 12 controls included the Complement source without antibody (137.9%±1.0% survival (no killing) for strain 15253, and 132.5%±14.3% survival (no killing) for the lgtG mutant of 15253).
(§2) Depicted in FIG. 12 is a graph showing survival of N. gonorrhoeae strain 15253 and its lgtG mutant (2C7 epitope negative) (4) exposed to mouse immune serum (67% final mouse immune serum concentration by volume) plus added human complement obtained from normal human donors (17% final human complement concentration by volume).
Strain 15253 lgtG contains a disrupted allele of lipooligosaccharide (LOS) glycosyl transferase G, which transfers glucose (via an α linkage) onto heptose-2 in the core of LOS (4). The disruption of the lgtG locus results in the loss of 2C7 epitope expression.
A standard bactericidal assay was performed to assess complement-mediated bactericidal activity in mouse sera (11). […] Survival was expressed as the percent increase in colonies on the plate at 30 minutes, compared to those on the plate at 0 minutes. […]

[2] = test system: IgM anti-LOS antibody; assay: IgM anti-LOS antibody response in immunized mice; format: in vivo; conditions: responder mice only
[3] = test system: IgG anti-LOS antibody; assay: IgG anti-LOS antibody response in immunized mice; format: in vivo
Description: FIGS. 8A-8D show octa-MAP1-induced IgG anti-LOS antibody responses in mice. (A) Eight mice received a dose of 50 μg of Octa-MAP1 emulsified in Freund's adjuvant on day 0 and again on day 21. (B) Four mice were immunized with purified LOS as a positive control. Mice were immunized with either Freund's adjuvant (C) or an unrelated octa-MAP control peptide (D) as negative controls.
In FIG. 8(A), eight mice received a dose of 50 μg of Octa-MAP1 emulsified in Freund's adjuvant on day 0 and again on day 21. […] In these mice, IgG anti-LOS titers increased minimally after the first immunization and rose after boosting.
IgG anti-LOS antibody responses for the responder mice only (from the experiments depicted in FIGS. 8A-8D) are shown in FIG. 10. Antibody response is defined as IgG anti-LOS (mean±SE) greater than 0.4 μg/ml (4 fold above baseline IgG anti-LOS levels).

[4] = test system: N. gonorrhoeae strain 15253; assay: Complement-mediated bactericidal assay, strain 15253; format: cell-based, Neisseria gonorrhoeae
Description: as §1, §2
A standard bactericidal assay was performed to assess complement-mediated bactericidal activity in mouse sera (11). In this assay, mouse serum (67% final volume) (from various mice immunized or not as described below) was incubated with approximately 2.5×10^3 bacteria suspended in Morse A media (33) in the presence of human complement (17% final volume). The reaction mixture was then shaken continuously at 37° C. for 30 minutes. Aliquots of the reaction mixture were then inoculated onto chocolate agar plates at time 0 and 30 minutes. Survival was expressed as the percent increase in colonies on the plate at 30 minutes, compared to those on the plate at 0 minutes. Greater than 100% survival in the assay indicates growth during the 30-minute incubation period.

[5] = test system: mAb 2C7; assay: Direct ELISA: mAb 2C7 binding to multiple antigen peptides; conditions: plates coated with MAP 1 μg/well
Description: (§3) Solid phase ELISA was performed to assess the binding of mAb 2C7 to multiple antigen peptides. For direct ELISA, Immulon 1 plates were coated overnight with multiple antigen peptides (1 μg/well) and reacted with varying concentration of mAb 2C7. For inhibition ELISA, plates were coated with purified LOS prepared from N. gonorrhoeae strain 15253 (80 μg/ml) at 37° C. for 3 h. Peptides (linear or MAPs) were diluted in blocking buffer (1% ovalbumin, 0.05% TWEEN-20™ (polysorbate 20), 0.5 M NaCl in PBS) to produce mixtures of varying concentrations. 50 μl-aliquots from each concentration were incubated with 50 μl of mAb 2C7 (stock concentration 0.4 μg/ml diluted in blocking buffer) at 37° C. for 1 h, then 100 μl of mixtures were loaded into microtiter plate wells. […] Purified LOS prepared from gonococcal strain 15253 was used as a positive control in inhibition ELISA.

[6] = biological target: mAb 2C7; assay: Inhibition ELISA: linear peptide or MAPs inhibiting mAb 2C7 binding to LOS; conditions: for pIC50: mAb 2C7 stock 0.4 μg/ml, LOS of strain 15253 coated plates, read-out: half maximal inhibition (IC50) of mAb 2C7 binding to LOS
Description: as §3

[7] = test system: mAb 2C7; assay: Inhibition ELISA: synthetic peptide inhibiting mAb 2C7 binding to LOS
Description: Peptides were diluted in blocking buffer (1% ovalbumin, 0.05% TWEEN-20™ (polysorbate 20), 0.5 M NaCl in PBS) to produce mixtures of varying concentrations (0.1, 0.5 and 1 mg/ml). […] Purified LOS prepared from gonococcal strain 15253 was used as a positive control. A non-reactive 15-mer peptide sequence generated by the above described random peptide library system was used as a negative control peptide [SEQ ID NO:9].

## CGPIPVLDENGLFAPGPC [Octa-MAP1]
[1]
  killing/survival of strain 15253 lgtG (in words): survived fully
[2]
  IgM anti-LOS antibody response (in words): failed to respond with IgM anti-LOS levels higher than mice immunized with negative control antigens
[3]; individual mice, pooled bleeds weeks 7-11
  IgG anti-LOS antibody concentration in serum of immunized mouse: 5.05 µg/mL and 1.38 µg/mL and 2.50 µg/mL
[3]; mice immunized day 0 and day 21, Octa-MAP1 50 μg in Freund's adjuvant
  mice with induced IgG anti-LOS antibody response: three of the eight
[3]; responder mice, 7 and 10 weeks after primary immunization
  IgG anti-LOS antibody levels compared with negative control antigens: higher (p<0.001)
[3]; three responder mice, boost at week 3
  time of peak IgG anti-LOS response: 7 week
[4]; serum of immunized mouse containing 1.38 μg/ml anti-LOS antibodies
  killing of strain 15253: 31%
[4]; serum of immunized mouse containing 2.50 μg/ml anti-LOS antibodies
  killing of strain 15253: 74%
[4]; serum of immunized mouse containing 5.05 μg/ml IgG anti-LOS, 67% serum, 17% human complement, 30 min
  killing of strain 15253: 92%
[4]; serum of single immunized mouse (pooled bleeds weeks 7-11), 67% serum, 17% human complement, 30 min
  survival of strain 15253: 8%
[5]
  binding to mAb 2C7 in direct ELISA (in words): strong binding
[6]
  pIC50: 6.64

## CGPIPVLDENGLFAPGPC [Tetra-MAP1]
[5]
  binding to mAb 2C7 in direct ELISA (in words): strong binding
[6]
  pIC50: 5.90

## CKSNPIHIIKNRRNIPC (disulfide 1-17 (inferred)) [negative control peptide, reference compound]
[7]; peptide 0.1, 0.5 and 1 mg/ml
  inhibition of binding of 2C7 mAb to purified LOS coated plate (in words): did not inhibit binding

## IPVLDENGLFAP [PEP1]
[7]; peptide 0.1 mg/ml
  percentage inhibition of mAb 2C7 binding to LOS: 17%
[7]; peptide 0.5 mg/ml
  percentage inhibition of mAb 2C7 binding to LOS: 77%
[7]; peptide 1.0 mg/ml
  percentage inhibition of mAb 2C7 binding to LOS: 91%

## control MAP: control multiple antigen peptide(s), each antigen SEQ ID NO: 12 (CGPEARDEGTITLERGPC; cysteine pairing not given here; also: multiple antigen peptide on lysine core) [reference compound]
[5]
  binding to mAb 2C7 in direct ELISA (in words): no binding
[6]
  inhibition of mAb 2C7 binding to LOS (in words): no significant inhibition

## linear PEP1: linear PEP1 peptide compared with the MAPs in inhibition ELISA (IPVLDENGLFAP)
[6]
  pIC50: 4.26

## unrelated octa-MAP control peptide: unrelated octa-MAP negative control, each antigen SEQ ID NO: 12 (CGPEARDEGTITLERGPC; cysteine pairing not given here; also: octa-MAP on lysine core) [reference compound]
[1]
  killing/survival of strain 15253 lgtG (in words): did not kill either strain
[3]; immunized mice
  IgG anti-LOS response (in words): weak or no IgG anti-LOS responses
[4]; serum of single immunized mouse, 67% serum, 17% human complement
  killing of strain 15253 (in words): did not kill either strain
